Assay results: patent US11155586B2, “Cystine knot scaffold platform” (Genentech, Inc., priority 2015, dated 2021)
Positions of bridges follow the written chain, without caps; N, C: chain ends. Residues, ends and D or L forms follow the SMILES beside them.

Legend:
VEGF-D and Flt-4 = biological target: T1, VEGF-D and Flt-4 (Homo sapiens, UniProt O43915); assay: Competition ELISA, growth factor/receptor interaction; assay type: binding; conditions: FIG. 2A
T1 construct: purchased R &D Systems (Minneapolis, Minn.)
T1 sequence (O43915 89-205 limits assumed): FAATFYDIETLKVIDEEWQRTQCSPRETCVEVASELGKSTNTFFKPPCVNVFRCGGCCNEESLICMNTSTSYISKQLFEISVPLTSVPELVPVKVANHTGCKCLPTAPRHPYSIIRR
Description: (§1) Binding specificity of each peptide was established by competition ELISA. […] After blocking with block buffer (PBS with 0.5% BSA and 0.05% TWEEN®20) for 2 hours at room temperature, the receptor-Fc fusions or biotinylated receptors were serially diluted using assay buffer (PBS with 0.5% BSA and 0.05% TWEEN®20) and incubated for 1 hour at room temperature. […] Competition ELISA was conducted in an identical fashion as described above except after blocking, a mixture of serially diluted peptide containing a constant concentration of receptor-Fc fusion or biotinylated receptor (concentration of receptor was set to EC60) was added and incubated for 1 hour. All recombinant human proteins and antibodies were purchased from R &D Systems (Minneapolis, Minn.).

PDGF and PDGFR = biological target: T2, PDGF and PDGFR (Homo sapiens, UniProt P01127); assay: as above; assay type: binding; conditions: FIG. 2B
T2 construct: purchased R &D Systems (Minneapolis, Minn.)
T2 sequence (P01127 82-190 limits assumed): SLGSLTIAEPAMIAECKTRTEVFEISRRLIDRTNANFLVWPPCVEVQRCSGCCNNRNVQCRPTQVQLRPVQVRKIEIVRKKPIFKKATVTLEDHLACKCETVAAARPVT
Description: as §1

VEGF-B and Flt-1 = biological target: T3, VEGF-B and Flt-1 (Homo sapiens, UniProt P49765); assay: as above; assay type: binding; conditions: FIG. 2A
T3 construct: purchased R &D Systems (Minneapolis, Minn.)
T3 sequence (P49765 22-136 limits assumed): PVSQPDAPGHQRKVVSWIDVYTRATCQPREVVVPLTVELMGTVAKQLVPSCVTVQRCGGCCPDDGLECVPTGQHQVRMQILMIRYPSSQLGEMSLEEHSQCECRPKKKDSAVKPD
Description: as §1

IGF and IGFR = biological target: T4, IGF and IGFR (Homo sapiens, UniProt P05019); assay: as above; assay type: binding; conditions: FIG. 2B
T4 construct: purchased R &D Systems (Minneapolis, Minn.)
T4 sequence (P05019 49-118 limits assumed): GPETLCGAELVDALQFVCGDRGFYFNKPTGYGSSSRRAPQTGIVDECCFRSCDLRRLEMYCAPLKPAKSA
Description: as §1

VEGF-A and Flt-1 = biological target: T5, VEGF-A and Flt-1 (Homo sapiens, UniProt P15692); assay: as above; assay type: binding; conditions: FIGS. 2A and 2B
T5 construct: VEGF-A(8-109) and Flt-1; purchased R &D Systems (Minneapolis, Minn.)
T5 sequence (P15692 214-315): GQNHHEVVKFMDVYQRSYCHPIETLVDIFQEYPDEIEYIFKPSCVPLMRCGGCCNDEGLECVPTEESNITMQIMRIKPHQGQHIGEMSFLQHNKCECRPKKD
Description: as §1

NGF and NGFR = biological target: T6, NGF and NGFR (Homo sapiens, UniProt P01138); assay: as above; assay type: binding; conditions: FIG. 2B
T6 construct: purchased R &D Systems (Minneapolis, Minn.)
T6 sequence (P01138 122-241): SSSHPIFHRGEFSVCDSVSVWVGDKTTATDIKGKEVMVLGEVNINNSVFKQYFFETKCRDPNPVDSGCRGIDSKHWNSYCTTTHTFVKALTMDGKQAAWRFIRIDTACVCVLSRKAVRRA
Description: as §1

EGF and EGFR = biological target: T7, EGF and EGFR (Homo sapiens, UniProt P01133); assay: as above; assay type: binding; conditions: FIG. 2B
T7 construct: purchased R &D Systems (Minneapolis, Minn.)
T7 sequence (P01133 971-1023 limits assumed): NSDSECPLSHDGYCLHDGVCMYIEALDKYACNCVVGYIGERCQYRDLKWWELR
Description: as §1

PIGF-2 and Flt-1 = biological target: T8, PIGF-2 and Flt-1 (Homo sapiens, UniProt P49763); assay: as above; assay type: binding; conditions: FIG. 2A
T8 construct: purchased R &D Systems (Minneapolis, Minn.)
T8 sequence (P49763 19-170 isoform P49763-3 limits assumed): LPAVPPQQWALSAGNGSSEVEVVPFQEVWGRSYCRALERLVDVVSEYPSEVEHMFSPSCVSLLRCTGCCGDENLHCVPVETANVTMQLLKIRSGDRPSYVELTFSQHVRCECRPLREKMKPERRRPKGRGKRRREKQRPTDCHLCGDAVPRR
Description: as §1

VEGF-C and Flt-4 = biological target: T9, VEGF-C and Flt-4 (Homo sapiens, UniProt P49767); assay: as above; assay type: binding; conditions: FIG. 2A
T9 construct: purchased R &D Systems (Minneapolis, Minn.)
T9 sequence (P49767 112-227 limits assumed): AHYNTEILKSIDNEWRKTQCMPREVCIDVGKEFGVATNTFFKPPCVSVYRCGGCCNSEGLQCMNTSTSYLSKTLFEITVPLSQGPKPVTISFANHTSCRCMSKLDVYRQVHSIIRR
Description: as §1

[1] = Oxidative stability (AAPH, LC-MS); assay type: physicochemical; conditions: 16 hours at 40° C.
Description: The oxidative stability of various CKP variants was assayed as follows: 5 μL of 11 mM AAPH (Calbiochem catalog no. 100110) in water was added to 50 uL of variant peptide sample (prepared as 1 mg/mL peptide in 20 mM histidine acetate pH 5.5) and the mix was incubated for 16 hours at 40° C. At the end of the incubation, the sample was quenched by addition of 27.5 uL of 40 mM methionine, followed by addition of 160 ul of 20 mM Histidine acetate, 100 mM sucrose at pH 5.5 to dilute the samples. The reactions were analyzed by LC-MS.

[2] = tested on: choroidal neovascularization in rat eyes; assay: VEGF-A driven model of laser-induced choroidal neovascularization; assay type: in vivo; conditions: intravitreal, 14-day period, vs control eyes, FIG. 12
Description: Next, VEGF-A binding variants VEGF_CKP9.54.90, VEGF_CKP9.63.12, and VEGF_CKP9.63.44 were assessed for their in vivo efficacy in a VEGF-A driven model of choroidal neovascularization. Laser-burnt spots were created in rat eyes and the formation of new vessels was monitored after a 14-day period in the presence and absence of peptide that was administered intravitreally at different intervals.

Compound: CC[C@H](C)[C@@H]1NC(=O)[C@H](CC(N)=O)NC(=O)[C@@H](NC(=O)CN)CSSC[C@@H](C(=O)N[C@H](C(=O)N[C@H]2CSSC[C@@H](C(=O)NCC(=O)O)NC(=O)[C@H](CO)NC(=O)[C@H](CCC(N)=O)NC(=O)[C@H](Cc3ccc(O)cc3)NC(=O)[C@H](Cc3ccc(O)cc3)NC(=O)[C@H](CCC(N)=O)NC2=O)C(C)C)NC(=O)CNC(=O)[C@H](C)NC(=O)[C@H](CC(C)C)NC(=O)[C@@H]2CSSC[C@H](NC(=O)CNC(=O)[C@H](Cc3c[nH]c4ccccc34)NC(=O)[C@H](Cc3ccccc3)NC(=O)[C@@H]3CCCN3C(=O)[C@H](CC(C)C)NC(=O)[C@H](CCSC)NC1=O)C(=O)NCC(=O)N[C@@H](CCCNC(=N)N)C(=O)N[C@@H](CC(=O)O)C(=O)N[C@@H](Cc1ccccc1)C(=O)N[C@@H](CCC(=O)O)C(=O)N2 [VEGF_CKP9.54.90] (H-GCNIMLPFWGCGRDFECLAGCVCQYYQSCG-OH; disulfide 2-21, 11-17, 23-29; N-terminus and C-terminus assumed)
- disruption of the interaction between VEGF-D and Flt-4 (VEGF-D and Flt-4): not disrupt
- disruption of the interaction between PDGF and PDGFR (PDGF and PDGFR): not disrupt
- disruption of the interaction between VEGF-B and Flt-1 (VEGF-B and Flt-1): not disrupt
- disruption of the interaction between IGF and IGFR (IGF and IGFR): not disrupt
- disruption of the interaction between VEGF-A and Flt-1 (VEGF-A and Flt-1): disrupts
- disruption of the interaction between NGF and NGFR (NGF and NGFR): not disrupt
- disruption of the interaction between EGF and EGFR (EGF and EGFR): not disrupt
- disruption of the interaction between PIGF-2 and Flt-1 (PIGF-2 and Flt-1): not disrupt
- disruption of the interaction between VEGF-C and Flt-4 (VEGF-C and Flt-4): not disrupt
- oxidation at Met5 within loop 1 [1]: ~30%
- inhibition of laser-induced choroidal neovascularization (neovascular area) [2]: effective inhibition
